Measured values as given in patent publication US10072026B2, “Crystalline form of 3-((1R,3s,5S)-3-((7-((5-methyl-1H-pyrazol-3-yl)amino)-1,6-naphthyridin-5-yl)amino)-8-azabicyclo[3.2.1]octan-8-yl)propanenitrile” (priority 2015, dated 2018).
Where two headings read alike, the source gives them in different places.

Experiments:
JAK1 = JAK1 (Homo sapiens (Human), UniProt P23458); assay: LanthaScreen JAK biochemical assay (JAK1); conditions: for Ki: read-out: JAK 1 (pKi) (converted)
[1] = system: IL-13 induced STAT6 phosphorylation in BEAS-2B human lung epithelial cells; assay: AlphaScreen cellular JAK potency assay, BEAS-2B
Tyk2 = Tyk2 (Homo sapiens (Human), UniProt P29597); assay: LanthaScreen JAK biochemical assay (Tyk2)
JAK2 = JAK2 (Homo sapiens (Human), UniProt O60674); assay: LanthaScreen JAK biochemical assay (JAK2)
[2] = system: IL-4 induced STAT6 phosphorylation in THP-1 human monocytic cells; assay: Cellular JAK potency assay, THP-1
JAK3 = JAK3 (Homo sapiens (Human), UniProt P52333); assay: LanthaScreen JAK biochemical assay (JAK3)
[3] = IL-13 induced STAT6 phosphorylation, BEAS-2B cells
[4] = BEAS-2B cells, IL-13 induced STAT6 phosphorylation
[5] = THP-1 cells, IL-4 induced STAT6 phosphorylation
[6] = IL-4 induced STAT6 phosphorylation, THP-1 cells
[7] = Homo sapiens, BEAS-2B, read-out: BEAS2B pIC50 (converted)
[8] = read-out: Tyk 2 (pKi) (converted)
[9] = Homo sapiens, THP-1, read-out: THP-1 IL4 pIC50 (converted)

Chain of JAK1 (P23458 whole entry): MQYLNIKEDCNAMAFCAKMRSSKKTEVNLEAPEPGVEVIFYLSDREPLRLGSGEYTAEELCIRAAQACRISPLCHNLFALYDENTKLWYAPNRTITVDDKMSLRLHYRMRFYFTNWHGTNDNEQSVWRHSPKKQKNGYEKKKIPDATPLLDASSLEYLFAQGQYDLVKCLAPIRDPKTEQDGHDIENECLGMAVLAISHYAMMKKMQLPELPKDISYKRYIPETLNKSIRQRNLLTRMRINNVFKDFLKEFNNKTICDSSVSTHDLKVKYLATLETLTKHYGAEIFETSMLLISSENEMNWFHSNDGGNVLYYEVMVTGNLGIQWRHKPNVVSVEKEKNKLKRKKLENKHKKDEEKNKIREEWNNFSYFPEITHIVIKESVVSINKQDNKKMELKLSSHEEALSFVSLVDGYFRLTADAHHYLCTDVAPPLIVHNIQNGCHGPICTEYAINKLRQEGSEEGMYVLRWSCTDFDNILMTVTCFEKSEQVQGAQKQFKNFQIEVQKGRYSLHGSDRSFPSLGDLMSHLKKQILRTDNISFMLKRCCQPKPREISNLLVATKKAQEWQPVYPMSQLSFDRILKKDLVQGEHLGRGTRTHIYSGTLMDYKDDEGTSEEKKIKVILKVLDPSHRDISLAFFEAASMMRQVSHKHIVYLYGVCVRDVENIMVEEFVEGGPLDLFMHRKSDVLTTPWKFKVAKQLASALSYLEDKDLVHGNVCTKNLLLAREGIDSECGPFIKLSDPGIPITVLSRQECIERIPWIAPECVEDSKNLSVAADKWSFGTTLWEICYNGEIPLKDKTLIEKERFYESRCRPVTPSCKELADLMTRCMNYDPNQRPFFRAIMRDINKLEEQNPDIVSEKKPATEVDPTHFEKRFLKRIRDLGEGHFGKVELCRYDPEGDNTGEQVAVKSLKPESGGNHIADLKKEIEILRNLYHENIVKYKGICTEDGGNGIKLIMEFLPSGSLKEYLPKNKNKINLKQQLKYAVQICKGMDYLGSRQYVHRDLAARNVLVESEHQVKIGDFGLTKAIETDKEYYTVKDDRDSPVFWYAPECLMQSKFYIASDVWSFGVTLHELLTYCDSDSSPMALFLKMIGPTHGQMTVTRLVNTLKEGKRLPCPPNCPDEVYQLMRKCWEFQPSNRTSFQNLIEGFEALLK
Chain of JAK2 (O60674 whole entry): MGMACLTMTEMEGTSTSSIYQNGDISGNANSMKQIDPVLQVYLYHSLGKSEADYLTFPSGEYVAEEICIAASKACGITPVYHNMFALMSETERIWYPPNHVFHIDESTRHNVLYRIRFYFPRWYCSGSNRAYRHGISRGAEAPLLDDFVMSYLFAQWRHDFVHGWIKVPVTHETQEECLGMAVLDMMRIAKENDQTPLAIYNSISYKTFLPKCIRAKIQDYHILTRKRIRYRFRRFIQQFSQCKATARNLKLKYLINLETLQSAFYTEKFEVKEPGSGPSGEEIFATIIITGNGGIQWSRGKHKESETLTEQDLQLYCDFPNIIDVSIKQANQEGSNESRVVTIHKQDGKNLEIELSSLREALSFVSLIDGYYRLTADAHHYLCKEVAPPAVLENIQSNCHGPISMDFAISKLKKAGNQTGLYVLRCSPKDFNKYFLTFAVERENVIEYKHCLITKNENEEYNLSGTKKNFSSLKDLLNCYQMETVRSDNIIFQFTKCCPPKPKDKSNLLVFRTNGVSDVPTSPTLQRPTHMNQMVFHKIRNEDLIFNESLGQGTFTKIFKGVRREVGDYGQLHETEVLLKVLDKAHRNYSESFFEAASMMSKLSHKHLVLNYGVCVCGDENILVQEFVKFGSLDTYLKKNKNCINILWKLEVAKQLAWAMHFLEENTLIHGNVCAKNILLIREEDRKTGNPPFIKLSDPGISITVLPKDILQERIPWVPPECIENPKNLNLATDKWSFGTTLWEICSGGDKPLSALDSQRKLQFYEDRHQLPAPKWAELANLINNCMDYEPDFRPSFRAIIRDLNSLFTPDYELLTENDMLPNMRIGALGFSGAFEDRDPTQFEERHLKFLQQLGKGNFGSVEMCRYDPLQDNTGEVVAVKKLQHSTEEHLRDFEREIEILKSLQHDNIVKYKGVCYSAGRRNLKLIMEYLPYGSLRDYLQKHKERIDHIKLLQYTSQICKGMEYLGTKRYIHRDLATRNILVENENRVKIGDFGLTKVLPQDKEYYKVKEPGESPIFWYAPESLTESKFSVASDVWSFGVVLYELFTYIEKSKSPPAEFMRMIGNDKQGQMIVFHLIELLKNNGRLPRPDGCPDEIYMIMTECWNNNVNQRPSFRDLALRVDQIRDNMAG
Chain of Tyk2 (P29597 whole entry): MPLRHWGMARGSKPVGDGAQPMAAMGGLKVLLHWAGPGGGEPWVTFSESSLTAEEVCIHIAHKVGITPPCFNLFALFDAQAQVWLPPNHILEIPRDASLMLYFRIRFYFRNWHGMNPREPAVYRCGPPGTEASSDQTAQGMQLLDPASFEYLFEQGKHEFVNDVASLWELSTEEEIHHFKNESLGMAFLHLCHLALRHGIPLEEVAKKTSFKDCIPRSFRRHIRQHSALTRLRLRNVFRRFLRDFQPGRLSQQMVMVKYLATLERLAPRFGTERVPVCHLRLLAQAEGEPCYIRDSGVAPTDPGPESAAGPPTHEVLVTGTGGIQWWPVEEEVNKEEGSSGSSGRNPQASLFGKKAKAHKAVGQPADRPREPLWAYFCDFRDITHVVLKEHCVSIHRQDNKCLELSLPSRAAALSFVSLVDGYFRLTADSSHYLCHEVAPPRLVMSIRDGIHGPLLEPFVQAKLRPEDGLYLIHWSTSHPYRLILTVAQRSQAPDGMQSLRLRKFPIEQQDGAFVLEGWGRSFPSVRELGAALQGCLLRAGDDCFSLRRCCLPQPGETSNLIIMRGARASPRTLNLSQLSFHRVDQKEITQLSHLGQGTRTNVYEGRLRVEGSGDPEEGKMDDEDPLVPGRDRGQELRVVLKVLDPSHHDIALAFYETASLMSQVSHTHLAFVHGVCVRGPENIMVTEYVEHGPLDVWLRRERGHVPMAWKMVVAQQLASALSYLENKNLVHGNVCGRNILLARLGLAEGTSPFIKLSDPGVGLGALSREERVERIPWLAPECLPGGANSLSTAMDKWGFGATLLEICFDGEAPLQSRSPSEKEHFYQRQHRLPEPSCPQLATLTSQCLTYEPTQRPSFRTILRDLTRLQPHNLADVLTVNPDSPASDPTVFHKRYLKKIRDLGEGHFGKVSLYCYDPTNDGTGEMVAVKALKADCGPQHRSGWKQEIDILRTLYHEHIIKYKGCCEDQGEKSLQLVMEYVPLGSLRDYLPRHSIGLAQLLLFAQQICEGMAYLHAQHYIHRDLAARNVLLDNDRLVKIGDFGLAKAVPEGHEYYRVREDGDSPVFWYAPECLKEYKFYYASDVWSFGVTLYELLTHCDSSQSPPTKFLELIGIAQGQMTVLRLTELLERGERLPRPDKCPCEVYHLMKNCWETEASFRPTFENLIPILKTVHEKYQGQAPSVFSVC

SMILES | JAK 1 (pKi) (JAK1) | BEAS2B pIC50 [1, 3] | Tyk 2 (pKi) (Tyk2) | JAK 2 (pKi) (JAK2) | THP-1 IL4 pIC50 [2, 6] | also measured
Cc1cc(Nc2cc3ncccc3c(N[C@@H]3C[C@H]4CCC[C@@H](C3)N4C(=O)CCCC#N)n2)n[nH]1 [Example 2-27] | B (B represents a pKi value between 9 and 10 (Ki between 1 nM and 0.1 nM)) | B (B represents a pEC50 value between 6.7 and 7.5 (EC50 between 200 nM and 32 nM)) | B (B represents a pKi value between 9 and 10 (Ki between 1 nM and 0.1 nM)) | B (B represents a pKi value between 9 and 10 (Ki between 1 nM and 0.1 nM)) |  | 
Cc1cnc2c(F)c(Nc3cc(C)[nH]n3)nc(N[C@@H]3C[C@H]4CCC[C@@H](C3)N4S(=O)(=O)N3CC(C#N)C3)c2c1 [Example 8-23] | B (B represents a pKi value between 9 and 10 (Ki between 1 nM and 0.1 nM)) |  | B (B represents a pKi value between 9 and 10 (Ki between 1 nM and 0.1 nM)) | A (A represents a pKi value≥10 (Ki≤0.1 nM)) |  | BEAS2B pIC50 [1, 4]: B (B represents a pEC50 value between 6.7 and 7.5 (EC50 between 200 nM and 32 nM)); THP-1 IL4 pIC50 [2, 5]: B (B represents a pEC50 value between 6.7 and 7.5 (EC50 between 200 nM and 32 nM))
Cc1cc(Nc2cc3ncccc3c(N[C@@H]3C[C@H]4CC[C@@H](C3)N4C(=O)CN(C)C)n2)n[nH]1 [Example 2-5] | B (B represents a pKi value between 9 and 10 (Ki between 1 nM and 0.1 nM)) |  |  |  | C (C represents a pEC50 value<6.7 (EC50>200 nM)) | JAK 3 (pKi) (JAK3): C (C represents a pKi value between 7 and 9 (Ki between 100 nM and 1 nM))
CCC(CC#N)N1[C@@H]2CC[C@H]1C[C@H](Nc1nc(Nc3cc(C)[nH]n3)cc3ncccc13)C2 (stereo partly drawn) [Example 1-22] | B (B represents a pKi value between 9 and 10 (Ki between 1 nM and 0.1 nM)) | A (A represents a pEC50 value≥7.5 (EC50≤32 nM)) | B (B represents a pKi value between 9 and 10 (Ki between 1 nM and 0.1 nM)) | B (B represents a pKi value between 9 and 10 (Ki between 1 nM and 0.1 nM)) | B (B represents a pEC50 value between 6.7 and 7.5 (EC50 between 200 nM and 32 nM)) | 
Cc1cc(Nc2cc3ncccc3c(N[C@@H]3C[C@H]4CCC[C@@H](C3)N4C(=O)C(C)CC#N)n2)n[nH]1 (stereo partly drawn) [Example 2-29] | B (B represents a pKi value between 9 and 10 (Ki between 1 nM and 0.1 nM)) | B (B represents a pEC50 value between 6.7 and 7.5 (EC50 between 200 nM and 32 nM)) | B (B represents a pKi value between 9 and 10 (Ki between 1 nM and 0.1 nM)) | B (B represents a pKi value between 9 and 10 (Ki between 1 nM and 0.1 nM)) |  | 
COc1cnc2cc(Nc3cc(C)[nH]n3)nc(N[C@@H]3C[C@H]4CC[C@@H](C3)N4S(=O)(=O)N3CC(C#N)C3)c2c1 [Example 6-20] |  |  |  |  |  | Ki (JAK1): 0.1 to 1 nM; IC50 [1, 7]: 31.6 to 200 nM; Ki (Tyk2; [8]): 0.1 to 1 nM; Ki (JAK2): 0.1 to 1 nM
COc1ccc2c(N[C@@H]3C[C@H]4CC[C@@H](C3)N4CCC#N)nc(Nc3cc(C)[nH]n3)cc2n1 [Example 5-8] | B (B represents a pKi value between 9 and 10 (Ki between 1 nM and 0.1 nM)) | A (A represents a pEC50 value≥7.5 (EC50≤32 nM)) | B (B represents a pKi value between 9 and 10 (Ki between 1 nM and 0.1 nM)) | B (B represents a pKi value between 9 and 10 (Ki between 1 nM and 0.1 nM)) | A (A represents a pEC50 value≥7.5 (EC50≤32 nM)) | 
COc1ccc2c(N[C@@H]3C[C@H]4CC[C@@H](C3)N4CC(F)(F)F)nc(Nc3cc(C)[nH]n3)cc2n1 [Example 5-1] |  |  |  |  |  | Ki (JAK1): 0.1 to 1 nM; IC50 [1, 7]: < 31.6 nM; IC50 [2, 9]: < 31.6 nM; Ki (Tyk2; [8]): 0.1 to 1 nM; Ki (JAK2; read-out: JAK 2 (pKi) (converted)): 0.1 to 1 nM
Cc1cc(Nc2cc3ncccc3c(N[C@@H]3C[C@H]4CCC[C@@H](C3)N4Cc3ccncc3C#N)n2)n[nH]1 [Example 1-56] | B (B represents a pKi value between 9 and 10 (Ki between 1 nM and 0.1 nM)) | A (A represents a pEC50 value≥7.5 (EC50≤32 nM)) | B (B represents a pKi value between 9 and 10 (Ki between 1 nM and 0.1 nM)) | B (B represents a pKi value between 9 and 10 (Ki between 1 nM and 0.1 nM)) | A (A represents a pEC50 value≥7.5 (EC50≤32 nM)) | 
Cc1cc(Nc2nc(N[C@@H]3C[C@H]4CC[C@@H](C3)N4C(=O)CN(C)C)c3cccnc3c2F)n[nH]1 [Example 8-7] |  |  |  |  |  | JAK 3 (pKi) (JAK3): C (C represents a pKi value between 7 and 9 (Ki between 100 nM and 1 nM)); THP-1 IL4 pIC50 [2, 5]: C (C represents a pEC50 value<6.7 (EC50>200 nM))
COc1cnc2cc(Nc3cc(C)[nH]n3)nc(N[C@@H]3C[C@H]4CCC[C@@H](C3)N4CCC#N)c2c1 [Example 6-31] | B (B represents a pKi value between 9 and 10 (Ki between 1 nM and 0.1 nM)) |  | B (B represents a pKi value between 9 and 10 (Ki between 1 nM and 0.1 nM)) | B (B represents a pKi value between 9 and 10 (Ki between 1 nM and 0.1 nM)) |  | BEAS2B pIC50 [1, 4]: A (A represents a pEC50 value≥7.5 (EC50≤32 nM)); THP-1 IL4 pIC50 [2, 5]: A (A represents a pEC50 value≥7.5 (EC50≤32 nM))
Cc1cc(Nc2cc3ncccc3c(N[C@@H]3C[C@H]4CC[C@@H](C3)N4C3(CC#N)COC3)n2)n[nH]1 [Example 1-25] |  |  |  |  |  | Ki (JAK1): 0.1 to 1 nM; IC50 [1, 7]: < 31.6 nM; IC50 [2, 9]: < 31.6 nM; Ki (Tyk2): 0.1 to 1 nM
